Molecular target: T1, RORγ LBD-GST tagged (Homo sapiens, UniProt P51449)
T1 construct: RORγ LBD-GST tagged (Cat No. RORC-114H, Creative Biomart); purchased Creative Biomart RORC-114H
T1 sequence (P51449 269-508 limits assumed): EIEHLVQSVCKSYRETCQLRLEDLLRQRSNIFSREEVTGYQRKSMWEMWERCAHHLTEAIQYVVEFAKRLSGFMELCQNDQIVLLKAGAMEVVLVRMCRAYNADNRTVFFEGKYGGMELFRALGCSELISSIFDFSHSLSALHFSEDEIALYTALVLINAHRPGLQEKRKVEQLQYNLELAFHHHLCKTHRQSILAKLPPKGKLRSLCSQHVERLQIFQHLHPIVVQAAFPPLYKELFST
Test: LanthaScreen TR-FRET RORγ coactivator assay
Format: biochemical
Details: Fluorescein-D22 coactivator peptide, 1 hour room temperature
Source text: LanthaScreen TR-FRET Retinoid-Related Orphan Receptor Gamma (RORγ) Coactivator Assay Materials and Reagents • 1. […] Fluorescein-D22 coactivator peptide (Cat No. PV4386, Invitrogen) • 3. LanthaScreen™ Tb anti-GST antibody (Cat No. PV3550, Invitrogen) • 4. TR-FRET coregulatory buffer D (Cat No, PV4420, Invitrogen) • 5. DTT (Cat No. P2325, Fisher) • 6. […] Tecan Infinite M1000 plate reader (Tecan) Experimental Procedure Prepare Complete TR-FRET Coregulator Buffer D by adding 1 M DTT to TR-FRET Coregulator Buffer D to the final concentration of 5 mM DTT. Make compound dilution in Complete TR-FRET Coregulator Buffer D. Highest dose is 3 μM, 7-folder dilution for total 7 doses. Add 10 μL to each well of a 384-well plate. For the negative and positive controls, add 10 μL of Complete TR-FRET Coregulator Buffer D. Prepare RORγ LBD using Complete TR-FRET Coregulator Buffer D. The final concentration of RORγ LBD is 25 ng/reaction. Add 5 μL RORγ LBD to all the wells of the 384-well assay plate except negative wells which adding 5 μL Complete TR-FRET Coregulator Buffer D. Prepare a solution containing 0.6 μM Fluorescein-D22 and 8 nM Tb anti-GST antibody using Complete TR-FRET Coregulator Buffer D. Add 5 μL to all wells of the 384-well assay plate. Briefly and gently mix the 384-well plate on a plate shaker and incubate at room temperature protected from light for 1 hour. The plate may be sealed with a cover to minimize evaporation. Read the plate at wavelengths of 520 nm and 495 nm on Tecan Infinite M1000. IC50 values were calculated using GraphPad Prism by plotting the logarithm of compounds concentration versus percent inhibition.

Row | IC50 [µM] | SMILES
1 | 0.014 | NC(=O)CC(c1ccc(S(=O)(=O)CC2CC2)cc1)c1nc2cc(Cl)c(N3CCC(F)(F)CC3)c(Cl)c2[nH]1 (single isomer, unassigned) [3-(4-((cyclopropylmethyl)sulfonyl)phenyl)-3-(5,7-dichloro-6-(4,4-difluoropiperidin-1-yl)-1H-benzo[d]imidazol-2-yl)propanamide]
2 | 0.698 | CCS(=O)(=O)c1ccc(C(O)c2nc3c(F)c(-c4ccccc4OC(F)(F)F)c(F)cc3[nH]2)cc1 (stereo not shown) [Example 110, (4,6-difluoro-5-(2-(trifluoromethoxy)phenyl)-1H-benzo[d]imidazol-2-yl)(4-(ethylsulfonyl)phenyl)methanol]
3 | 0.062 | CS(=O)(=O)c1ccc(C(CO)c2nc3c(Cl)c(-c4ccccc4OC(F)(F)F)c(Cl)cc3[nH]2)c(Cl)c1 (stereo not shown) [Example 102, 2-(2-chloro-4-(methylsulfonyl)phenyl)-2-(4,6-dichloro-5-(2-(trifluoromethoxy)phenyl)-1H-benzo[d]imidazol-2-yl)ethanol]
4 | 0.026 | CCS(=O)(=O)c1ccc(C(NC(C)=O)c2nc3c(Cl)c(-c4ccccc4OC(F)(F)F)c(Cl)cc3[nH]2)cc1 (stereo not shown) [Example 44, N-((4,6-dichloro-5-(2-(trifluoromethoxy)phenyl)-1H-benzo[d]imidazol-2-yl)(4-(ethylsulfonyl)phenyl)methyl)acetamide]
5 | 0.255 | CS(=O)(=O)c1ccc(C(O)c2nc3c(Cl)c(-c4ccccc4OC(F)F)c(Cl)cc3[nH]2)cc1 (stereo not shown) [Example 49, (4,6-dichloro-5-(2-(difluoromethoxy)phenyl)-1H-benzo[d]imidazol-2-yl)(4-(methylsulfonyl)phenyl)methanol]
6 | 0.564 | CCS(=O)(=O)c1ccc(C(CO)c2nc3c(F)c(-c4ccccc4)c(F)cc3[nH]2)cc1 (stereo not shown) [Example 114, 2-(4,6-difluoro-5-phenyl-1H-benzo[d]imidazol-2-yl)-2-(4-(ethylsulfonyl)phenyl)ethanol]
7 | 0.076 | CCS(=O)(=O)c1ccc(C(CO)c2nc3c(F)c(-c4ccccc4F)c(F)cc3[nH]2)cc1 (stereo not shown) [Example 112, 2-(4,6-difluoro-5-(2-fluorophenyl)-1H-benzo[d]imidazol-2-yl)-2-(4-(ethylsulfonyl)phenyl)ethanol]
8 | 0.188 | CCS(=O)(=O)c1ccc(C(O)c2nc3c(Cl)c(-c4ccccc4OC(F)F)c(Cl)cc3[nH]2)c(F)c1 (stereo not shown) [Example 85, (4,6-dichloro-5-(2-(difluoromethoxy)phenyl)-1H-benzo[d]imidazol-2-yl)(4-(ethylsulfonyl)-2-fluorophenyl)methanol]
9 | 0.187 | CS(=O)(=O)c1ccc(C(CO)c2nc3c(Cl)c(-c4ccccc4OC(F)(F)F)c(Cl)cc3[nH]2)cc1 (stereo not shown) [Example 57, 2-(4,6-dichloro-5-(2-(trifluoromethoxy)phenyl)-1H-benzo[d]imidazol-2-yl)-2-(4-(methylsulfonyl)phenyl)ethanol]
10 | 0.266 | CS(=O)(=O)c1ccc(C(O)c2nc3c(Cl)c(-c4ccccc4OC(F)(F)F)c(Cl)cc3[nH]2)cc1 (stereo not shown) [Example 58, (4,6-dichloro-5-(2-(trifluoromethoxy)phenyl)-1H-benzo[d]imidazol-2-yl)(4-(methylsulfonyl)phenyl)methanol]
11 | 0.097 | CCOc1ccccc1-c1c(Cl)cc2[nH]c(C(CO)c3ccc(S(=O)(=O)CC)cc3)nc2c1Cl (stereo not shown) [Example 17, 2-(4,6-dichloro-5-(2-ethoxyphenyl)-1H-benzo[d]imidazol-2-yl)-2-(4-(ethylsulfonyl)phenyl)ethanol]
12 | 0.348 | CCS(=O)(=O)c1ccc(Cc2nc3c(Cl)c(-c4ccccc4C(C)C)c(Cl)cc3[nH]2)cc1 [Example 36, 4,6-dichloro-2-(4-(ethylsulfonyl)benzyl)-5-(2-isopropylphenyl)-1H-benzol[d]imidazole]
13 | 0.367 | COCCS(=O)(=O)c1ccc(C(CO)c2nc3c(Cl)c(-c4ccccc4OC(F)(F)F)c(Cl)cc3[nH]2)cc1 (stereo not shown) [Example 54, 2-(4,6-dichloro-5-(2-(trifluoromethoxy)phenyl)-1H-benzo[d]imidazol-2-yl)-2-(4-((2-methoxyethyl)sulfonyl)phenyl)ethanol]

— patent US12187684B2, “Benzimidazole derivatives as modulators of retinoid-related orphan receptor gamma (RORγ) and pharmaceutical use thereof” (Jiangsu Hengrui Medicine Co., Ltd., priority 2018, dated 2025)
